US10787436B2, “Inhibitors of cyclin-dependent kinase 7 (CDK7)” (Dana-Farber Cancer Institute, Inc., priority 2012, dated 2020)

Experiments:
IRAK1 = IRAK1 (Homo sapiens (Human), UniProt P51617); assay: Life Technologies Adapta kinase assay, IRAK1; type: biochemical; details: read-out: Calculated IC50, IRAK1
T47D = assay: Proliferation assay, CellTiter-Glo, 72 hour; type: cell-based; details: breast cancer cell line, read-out: Inhibition of proliferation, T47D
[1] = tested on: retinal pigment epithelial (RPE1) cells; assay: Anti-proliferative assay, cell titer glo, 72 hours; type: cell-based, human
Method: (§1) At indicated time points, cellular lysates were harvested at the indicated times points and immunoblotted for the indicated proteins. […] Anti-proliferative effects were determined using cell titer glo analysis. […] Anti-proliferative effects were determined using alamarBlue® analysis. […] Anti-proliferative effects were determined using cell titer glo analysis. […] Dose: i.v. 1 mg/kg and p.o. 10 mg/kg.
(§2) Proliferation assays were conducted over a 48-72 hour time period (as noted). […] Cancer cell line profiling was performed over a 72 time period using Alamar Blue reagent.
CDK7 inhibitors display strong antiproflierative effects in leukemia and lymphoma cancer cells. However, a better definition of the breadth of their therapeutic potential in other cell types has not been reported. […] The rationale for examining such a large panel of human cancer cell lines is based on the fact that there is substantial genetic heterogeneity among human tumor cells, even with the same histological origins. In general, the data reveal a bimodal distribution with cell lines displaying exquisite sensitivity or apparent complete insensitivity to the compound.

Hs822T = assay: Proliferation assay, CellTiter-Glo, 72 hour; type: cell-based; details: Ewing's sarcoma cell line, read-out: Inhibition of proliferation, Hs822T
HL60 = assay: Proliferation assay, CellTiter-Glo, 72 hour; type: cell-based; details: blood cancer cell line, read-out: Inhibition of proliferation, HL60
[2] = tested on: patient-derived chronic lymphocytic leukemia (CLL) isolates; assay: Cell death of patient-derived CLL isolates, Annexin V staining, 24 hour; type: cell-based, human; details: read-out: Pro-death signaling, average EC50 values
Method: (§3) Clinical isolates of CLL were cultured with compounds of Formula (I) or flavopiridol and assessed for cell death after a 24 hour time course by Annexin V staining. […] Anti-proliferative effect was measured using cell titer glo analysis.
PBMCs freshly isolated from peripheral blood are seeded in 24 well plates at a volume of 0.5 ml and a concentration of 2×10^6 cells/ml. Compounds and controls are added to respective wells in a total volume of 2.5 μl. Plates are mixed gently and incubated approximately 24 hours at 37° C., 5% CO2. Apoptosis was measured in all cells from each well using the Annexin V: FITC Apoptosis Detection Kit I (BD Biosciences). Normalized % death was calculated as follows: [(% Dead Drug−% Dead DMSO)/(100%−% Dead DMSO)]×100

[3] = tested on: multiple myeloma cell lines; assay: Anti-proliferative effect in multiple myeloma cell lines with or without stromal cells, cell titer glo, 48-hour; type: cell-based; details: 48-hour treatment
Method: as §3, §2

RNAP II occupancy = assay: RNAP II ChIP-seq in Jurkat cells; type: cell-based, human; details: 250 nM for 6 hours
Method: After the indicated treatment time, cells were crosslinked for 10 minutes at room temperature by the addition of one-tenth of the volume of 11% formaldehyde solution (11% formaldehyde, 50 mM Hepes (pH 7.3), 100 mM NaCl, 1 mM EDTA (pH 8.0), 0.5 mM EGTA (pH 8.0)) to the growth media followed by two washes with PBS. Following the final PBS wash, supernatant was aspirated, and the cell pellet was flash frozen in liquid nitrogen. Frozen crosslinked cells were stored at −80° C.
50 μl of Dynal magnetic beads (Sigma) were blocked with 0.5% BSA (w/v) in PBS. Magnetic beads were bound with 5 μg of the indicated antibody. Antibodies used are as follows: Total RNAP II (Rpb1 N-terminus): Santa Cruz sc-899; CDK7: Bethyl A300-405A. Crosslinked cells were lysed with lysis buffer 1 (50 mM Hepes (pH 7.3), 140 mM NaCl, 1 mM EDTA, 10% glycerol, 0.5% NP-40, and 0.25% Triton X-100) and washed with lysis buffer 2 (10 mM Tris-HCl (pH 8.0), 200 mM NaCl, 1 mM EDTA (pH 8.0) and 0.5 mM EGTA (pH 8.0)). […]
Illumina sequencing libraries were generated, and data were processed according to Lin et al., Cell (2012) 151:56-67. […] These criteria preserved only reads that mapped uniquely to the genome with 1 or fewer mismatches. […]

MV4-11 = assay: Proliferation assay, CellTiter-Glo, 72 hour; type: cell-based; details: blood cancer cell line, read-out: Inhibition of proliferation, MV4-11
RS4-11 = assay: Proliferation assay, CellTiter-Glo, 72 hour; type: cell-based; details: blood cancer cell line, read-out: Inhibition of proliferation, RS4-11
BCL-XL = assay: Immunoblot of BCL-2 family proteins in Loucy cells; type: cell-based; details: 12 to 48 hours
Method: as §1
(§4) Consistent with its covalent inhibitory mechanism, similar results were seen over the same time span following washout (FIGS. 6A to 6B).

MCL-1 protein = assay: Immunoblot of BCL-2 family proteins in Loucy cells; type: cell-based; details: after 12 hours
Method: as §1, §4

MLK3 = MLK3 (Homo sapiens (Human), UniProt Q16584); assay: Life Technologies LanthaScreen Eu kinase assay, MLK3; type: binding; details: read-out: Calculated IC50, MLK3
Chain of MLK3 (Q16584 whole entry): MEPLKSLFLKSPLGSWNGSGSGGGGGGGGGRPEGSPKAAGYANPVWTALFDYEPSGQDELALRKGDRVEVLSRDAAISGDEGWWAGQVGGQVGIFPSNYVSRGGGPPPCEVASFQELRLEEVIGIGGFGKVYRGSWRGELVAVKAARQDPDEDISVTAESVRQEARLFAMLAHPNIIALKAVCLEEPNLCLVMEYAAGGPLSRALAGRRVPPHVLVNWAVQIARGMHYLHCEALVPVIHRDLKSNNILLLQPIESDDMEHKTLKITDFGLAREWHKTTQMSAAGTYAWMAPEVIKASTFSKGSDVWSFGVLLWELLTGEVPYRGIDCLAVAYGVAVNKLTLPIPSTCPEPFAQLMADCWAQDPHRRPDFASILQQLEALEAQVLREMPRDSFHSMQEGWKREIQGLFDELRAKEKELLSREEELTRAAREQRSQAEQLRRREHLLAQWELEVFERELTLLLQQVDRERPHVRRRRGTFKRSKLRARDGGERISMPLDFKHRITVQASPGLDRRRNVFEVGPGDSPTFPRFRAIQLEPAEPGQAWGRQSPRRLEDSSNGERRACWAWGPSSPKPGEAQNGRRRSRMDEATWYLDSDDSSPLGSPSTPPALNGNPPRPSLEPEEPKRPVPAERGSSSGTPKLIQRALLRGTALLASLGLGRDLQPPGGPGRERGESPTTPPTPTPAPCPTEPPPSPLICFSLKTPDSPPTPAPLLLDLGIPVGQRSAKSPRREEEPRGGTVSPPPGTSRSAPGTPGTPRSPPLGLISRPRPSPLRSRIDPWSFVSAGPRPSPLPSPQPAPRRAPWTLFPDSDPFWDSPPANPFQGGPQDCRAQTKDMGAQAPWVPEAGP

JNK2 (MAPK9) = JNK2 (MAPK9) (Homo sapiens (Human), UniProt P45984); assay: Life Technologies Z'-Lyte kinase assay, JNK2; type: biochemical
Chain of JNK2 (MAPK9) (P45984 whole entry): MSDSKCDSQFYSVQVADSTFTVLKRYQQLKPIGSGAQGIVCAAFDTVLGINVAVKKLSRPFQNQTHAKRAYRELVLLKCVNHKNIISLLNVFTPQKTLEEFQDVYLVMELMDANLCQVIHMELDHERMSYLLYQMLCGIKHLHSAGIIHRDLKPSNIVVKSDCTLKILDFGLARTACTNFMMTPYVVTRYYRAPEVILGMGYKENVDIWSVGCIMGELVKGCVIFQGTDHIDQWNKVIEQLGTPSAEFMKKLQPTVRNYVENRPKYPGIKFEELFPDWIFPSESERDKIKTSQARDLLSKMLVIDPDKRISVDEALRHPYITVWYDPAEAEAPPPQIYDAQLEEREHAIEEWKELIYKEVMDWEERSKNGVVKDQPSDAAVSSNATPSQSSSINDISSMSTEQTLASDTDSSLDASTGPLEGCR

Chain of IRAK1 (P51617 whole entry): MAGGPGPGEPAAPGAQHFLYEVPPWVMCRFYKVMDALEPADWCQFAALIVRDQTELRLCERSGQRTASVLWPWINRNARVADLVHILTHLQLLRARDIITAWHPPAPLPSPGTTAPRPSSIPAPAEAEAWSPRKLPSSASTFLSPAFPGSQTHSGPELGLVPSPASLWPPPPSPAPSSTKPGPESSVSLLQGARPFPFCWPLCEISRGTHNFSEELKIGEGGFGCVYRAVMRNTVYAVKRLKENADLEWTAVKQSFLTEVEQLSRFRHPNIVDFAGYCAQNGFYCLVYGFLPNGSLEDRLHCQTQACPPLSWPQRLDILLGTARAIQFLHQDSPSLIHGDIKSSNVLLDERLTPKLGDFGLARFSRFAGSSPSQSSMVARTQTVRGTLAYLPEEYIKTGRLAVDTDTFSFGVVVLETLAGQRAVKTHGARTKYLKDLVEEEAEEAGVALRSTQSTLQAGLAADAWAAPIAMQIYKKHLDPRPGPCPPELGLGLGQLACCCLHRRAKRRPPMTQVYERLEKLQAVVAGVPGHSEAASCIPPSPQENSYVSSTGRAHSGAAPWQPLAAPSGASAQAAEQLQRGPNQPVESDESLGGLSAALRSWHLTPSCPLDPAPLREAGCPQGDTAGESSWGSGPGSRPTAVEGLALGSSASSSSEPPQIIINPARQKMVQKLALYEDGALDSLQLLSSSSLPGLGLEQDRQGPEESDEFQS

IC50 (IRAK1): < 100 nM | IC50 (T47D): > 5000 nM | IC50 (HL60): < 500 nM | IC50 (MV4-11): < 500 nM | IC50 (RS4-11): < 500 nM | IC50 (MLK3): < 100 nM | IC50 (JNK2 (MAPK9); read-out: Calculated IC50, JNK2 (MAPK9)): 100 to 1000 nM | Percent inhibition, JNK2 ^b (JNK2 (MAPK9); superscript b (footnote not given; tested at 100 nM and 1 μM)): C (less than 50% inhibition)
SMILES: CN(C)C/C=C/C(=O)Nc1ccc(C(=O)Nc2cccc(Nc3ncc(Cl)c(-c4c[nH]c5ccccc45)n3)c2)cc1 [Formula I-23]
Sensitivity of untransformed RPE1 cells [1]: largely resistant | IC50 (Hs822T): < 500 nM | EC50 [2]: < 200 nM | Anti-proliferative activity in MM cell lines [3]: highly effective anti-proliferative activity | RNAP II occupancy at the promoter proximal pause site (RNAP II occupancy): drastically diminished | Reduction of BCL-XL protein levels (BCL-XL): not reduced even at higher concentrations | Concentration sufficient to elicit a reduction in MCL-1 protein levels (MCL-1 protein): ≤ 100 nM
